Experiments:
NMDAR [1] = assay: Ca2+ imaging of hippocampal brain slices, NMDA+glycine application (NMDA reaction), HFD-fed mice; assay type: cell-based, mouse; conditions: slices of HFD-fed mice given PER 5 mg/kg/day orally, 50 μM NMDA + 10 μM glycine, N=5
HFD-fed mice [2] = assay: MRI volumetric analysis of mouse hippocampus; assay type: in vivo; conditions: HFD-fed mice n=8 treated with PER; left CA1 and DG, right CA1, CA3 and DG
Text: Anatomical brain images of 8 ex vivo mice with CD, HFD, PER treatment were acquired using a Bruker BioSpec 117/11 11.75 Tesla MRI scanner (Bruker BioSpin GmbH, Ettlingen, Germany). MPRAGE (three-dimensional (3D)-prepared rapid gradient-echo) sequences were acquired as high resolution 100 μm iso-voxel images for voxel-based morphometry (matrix size: 280×220×220; field of view: 28×22×22 mm, repetition time: 2000 ms, echo time: 1.78 ms, flip angle: 12 degrees, inversion time: 800 ms, echo train length: 13, average number of times: 2).
A region of interest was drawn in the acquired data image using a rapid acquisition protocol by relaxation enhancement (RARE) sequence (matrix size: 280×220×220, field of view: 28×22×22 mm; repeat time: 1500 ms; echo time: 25 ms; flip angle: 180°). The MPRAGE image and the RARE image were simultaneously acquired by one single scan.
MRI data acquisition of ex vivo mice was acquired by simultaneously placing the head parts of four mice fixed with PBS into an MRI coil. Brains of four mice were confirmed using raw MRI data. […]
The volume of subfields of the hippocampus (CA1, CA2, CA3, DG, EC) was calculated using the ROI file (31, 33, 51, 52). […]

[3] = test system: neurospheres established from NL-G-F(−/−) mice; assay: Neurosphere culture from NL-G-F(-/-) mouse hippocampus: Aβ42/Aβ40 EIA and Aβ staining; assay type: cell-based
Text: Biomarkers of Alzheimer's dementia include the Aβ42/Aβ40 ratio of cerebrospinal fluid (CSF) and plasma levels, phosphorylated tau (P-tau) in threonines 181 and 217, and neurofilament lite (NfL) (Curr Opin Neurol 2021 1 266-274). The Aβ42/Aβ40 ratio is considered to be able to predict Aβ accumulation in PET (Doecke J D et al., Neurology 2020). Hippocampus on 17 to 19 days of NL-G-F(−/−) mouse embryonic life was taken out and cultured by a Neurosphere method by Brewer G J et al. (Nat Protoc 2007 2, 1490-1498), and a supernatant was measured by an EIA method using this culture system. The change in the Aβ42/Aβ40 ratio by the perampanel (50 μM/methyl cellulose 4 μL) was analyzed. In 4 μL of a 0.5 w/v % aqueous solution of methyl cellulose 400, 5×10^4 spheres smaller than 50 μm in diameter were cultured in 50 ml Falcon Flask coated with poly-D-lysine/laminin, and Aβ42 and Aβ40 of the supernatant were measured by EIA method on the second day (FIG. 29A) and the fourth day (FIG. 29B) of culture. The solvent was administered 12 hours after seeding.

HFD-fed mice [4] = assay: Five-trial social memory assay, HFD-fed mice; assay type: in vivo, mouse; conditions: HFD-fed mice with PER treatment
Experimental: Five-trial social tests were performed as previously described (19). In summary, subject mice with CD, HFD, and HFD with PER treatment were housed individually starting 7 days before the study to establish territory dominance. On the day of the test, a female mouse was presented in the cages of subject male mice, which is a subject (FIG. 2G), and 5 min trials were performed 4 times in succession at 10 min intervals. In the fifth trial, a novel female mouse was presented (FIG. 2G) and the duration of the social investigation was recorded.

NMDAR [5] = assay: Ca2+ imaging of hippocampal brain slices, NMDA+glycine application, ob/ob mice; conditions: ob/ob mice, PER administration; p<0.05

## N#Cc1ccccc1-c1cc(-c2ccccn2)cn(-c2ccccc2)c1=O [PER, 3-(2-cyanophenyl)-5-(2-pyridyl)-1-phenyl-1,2-dihydropyridine-2-one]
NMDAR [1]; CA1
  NMDA reaction CA1 (maximum value of NF525): 1.20 ± 0.08 (N = 5)
NMDAR [1]; CA2
  NMDA reaction CA2 (maximum value of NF525): 1.20 ± 0.09 (N = 5)
NMDAR [1]; CA3
  NMDA reaction CA3 (maximum value of NF525): 1.12 ± 0.04 (N = 5)
NMDAR [1]; DG
  NMDA reaction DG (maximum value of NF525): 1.17 ± 0.04 (N = 5)
NMDAR [1]; EC
  NMDA reaction EC (maximum value of NF525): 1.16 ± 0.06 (N = 5)
HFD-fed mice [2]
  hippocampal volume (printed brain weight) by volumetric analysis: significantly restored
[3]; fourth day of culture, formic acid treatment
  Aβ staining of the culture: decrease in Aβ
[3]; perampanel 50 μM/methyl cellulose 4 μL, second and fourth day of culture
  Aβ42/Aβ40 ratio of the culture supernatant (EIA): significantly increased
HFD-fed mice [4]
  social memory (five-trial social interaction test): restored social memory disturbance
NMDAR [5]
  NMDAR function in all hippocampal subregions: restoration
